Results on one compound are retold here after BindingDB's records for doi:10.1016/j.bmc.2012.10.036 (Glaxosmithkline, 2012).

The assay is described as follows: Inhibition of glucocorticoid receptor in human H13 cells assessed as inhibition of glucocorticoid-induced cell proliferation after 3 hrs by [3H]-thymidine incorporation assay.

Turning to `CC[C@H]1OC(=O)[C@H](C)[C@@H](O[C@H]2C[C@@](C)(OC)[C@@H](O)[C@H](C)O2)[C@H](C)[C@@H](O[C@@H]2O[C@H](C)C[C@H](N(C)C)[C@H]2O)[C@](C)(O)C[C@@H](C)CN(CCCNC(=O)[C@H]2[C@H](C)C[C@H]3[C@@H]4CCC5=CC(=O)C=C[C@]5(C)[C@@]4(F)[C@@H](O)C[C@@]32C)[C@H](C)[C@@H](O)[C@]1(C)O`, the 50% effective concentration (EC50) – broadly, the concentration giving half of the maximal effect – is 50 nM.
